The test system of the assay is MOG-induced chronic EAE in C57BL/6 mice. It is filed as in vivo.

Text: The effect of the two formulations on MOG (myelin-oligodendrocyte-glycoprotein)-induced chronic EAE in C57BL/6 mice was examined according to the procedure described below.
Forty (40) female C57BL/6 mice had been randomly grouped into three (3) groups by body weight in this study; each group consisted of ten (10) mice. […] EAE had been induced by injection of emulsion of MOG subcutaneously on the shaved back of the mouse at three sites, followed by an intraperitoneal injection of Bordetella pertussis toxin in PBS on Day 0 and 48 hours post MOG immunization. EAE had been assessed by clinical scoring of the mice once daily from Day 0 to Day 14 post immunization. […] On Day 14, mice had been terminated.
After anesthetization by isoflurane (2-3%, inhalation), EAE had been induced by injecting 100 μL emulsion subcutaneously into the shaved backs of the mice. Bordetella pertussis toxin (200 ng in 200 μL of PBS) had been administered i.p. on the day of immunization (Day 0) and 48 hours thereafter. […]
Body weight of all mice had been recorded daily starting from Day 0 to Day 14. EAE development had been assessed by clinically scoring of the mice once daily from Day 0 to Day 14 post immunization according to a scale of 0-5 (0=normal mouse; 1=limp tail or hind limb weakness; 2=limp tail and hind limb weakness; 3=partial hind limb paralysis; 4=complete hind limb paralysis; and 5=moribund state). […]

Regarding “L-glutamic acid polymer with L-alanine, L-lysine and L-tyrosine, acetate (salt) [GA]”, where the note is “clinical score scale 0-5, days 0-14, 5 mg GA/mice/day i.m. on day 0 and day 1”, the Maximum score amounted to 0.5 ± 0.31. The Disease duration (days 0-14, 5 mg GA/mice/day i.m. on day 0 and day 1) was 0.5 ± 0.31.

(Values after USRE50301E1, “Depot systems comprising glatiramer or pharmacologically acceptable salt thereof” (MAPI PHARMA LTD., priority 2010, dated 2025).)
